Counter-ions that a name gives are not always drawn.
Tests used:
Type in all cases: physicochemical
[1] = Release rate by dialysis in a diffusion chamber model; conditions: against 20% glycerol, 3% Poloxamer 407, pH 7.4, 37° C.
Procedure: Amiodarone HCl and a tocol emulsion containing amiodarone and tocopherol phosphate as a tocol-soluble binary ion pair, prepared as mentioned above, were dialyzed against 20% glycerol, 3% Poloxamer 407 at pH 7.4 and 37° C.
The rate of free or complexed drug exiting the dialysis chamber provides an indirect estimate of the “sustained release” properties of the emulsion and the strength of the ion pair species.

[2] = Solubility of clarithromycin in tocopherol oil phase (crystals on cooling)
Procedure: Clarithromycin was obtained as the free base from Wockhardt (Delhi, India). Vitamin E Succinate (VESA) was obtained from Eastman (Freeport Tenn.). Capmul® MCM was obtained from Abitec (Janesville Wis.); Poloxamer® 407 (Pluronic® F-127) from BASF (Parsippany N.J.); PEG-400 from Spectrum Chemicals (Gardenia Calif.), and d-δ-tocopherol from Sigma Chemicals (St Louis MO). An oil phase consisting of d-δ-tocopherol and Capmul MCM was prepared using 2 parts of δ-tocopherol. Dry ethanol was used to dissolve the components at 70° C. and the ethanol was then removed under vacuum. […] A tocol-soluble ion pair of this compound was then produced by addition of a stoichiometric equivalent of Vitamin E succinate (VESA) as the free acid. […] The clarithromycin was now sufficiently soluble in the tocopherol oil to allow subsequent preparation of the emulsion. The oil was then re-heated to 45° C. and degassed immediately prior to emulsification as described below.

[3] = Erythromycin solubility in oils
[4] = Doxorubicin ion pair solubility in vitamin E and emulsification; conditions: ion pair with vitamin E phosphate free acid at 2:1 molar ratio
Text: A fine emulsion can be prepared using high pressure homogenization to reduce particle size.

## CCCCc1oc2ccccc2c1C(=O)c1cc(I)c(OCCN(CC)CC)c(I)c1 [Amiodarone HCl]
[1]
  Rate of dialysis / diffusion out of the dialysis chamber: linear with concentration

## CC[C@H]1OC(=O)[C@H](C)[C@@H](O[C@H]2C[C@@](C)(OC)[C@@H](O)[C@H](C)O2)[C@H](C)[C@@H](O[C@@H]2O[C@H](C)C[C@H](N(C)C)[C@H]2O)[C@](C)(OC)C[C@@H](C)C(=O)[C@H](C)[C@@H](O)[C@]1(C)O [Clarithromycin]
[2]; after addition of a stoichiometric equivalent of Vitamin E succinate (free acid), re-dissolution in ethanol and cooling
  Crystallization upon cooling of the oil: no crystals formed
[2]; d-δ-tocopherol/Capmul MCM oil phase with surfactant, ethanol removed, without Vitamin E succinate
  Crystallization upon cooling of the oil: crystals of clarithromycin were observed

## CC[C@H]1OC(=O)[C@H](C)[C@@H](O[C@H]2C[C@@](C)(OC)[C@@H](O)[C@H](C)O2)[C@H](C)[C@@H](O[C@@H]2O[C@H](C)C[C@H](N(C)C)[C@H]2O)[C@](C)(O)C[C@@H](C)C(=O)[C@H](C)[C@@H](O)[C@]1(C)O [Erythromycin]
[3]; MCT
  solubility in medium-chain triglycerides (MCT): ~4 % w/w
[3]; α-tocopherol
  solubility in α-tocopherol: approximately 10 % w/w

## COc1cccc2c1C(=O)c1c(O)c3c(c(O)c1C2=O)C[C@@](O)(C(=O)CO)C[C@@H]3O[C@H]1C[C@H](N)[C@H](O)[C@H](C)O1 [doxorubicin free base, Doxorubicin]
[4]
  Solubility of ion pair in vitamin E: soluble in vitamin E
